Test results taken from patent US12466781B2, “Thyromimetics” (Autobahn Therapeutics, Inc., priority 2019, dated 2025).

Assays:
TRα = target: T1, TRα (Homo sapiens, UniProt P10827); assay: Thyroid-hormone reporter-gene assay (TRα-Gal4 hybrid, luciferase, HEK293); type: cell-based; settings: reporter cells, 24 hr incubation; Table 2; read-out: TRα (EC50)
T1 construct: expressed in transfected cells; host or cells: HEK293
T1 sequence (P10827 163-410 isoform P10827-2 limits assumed): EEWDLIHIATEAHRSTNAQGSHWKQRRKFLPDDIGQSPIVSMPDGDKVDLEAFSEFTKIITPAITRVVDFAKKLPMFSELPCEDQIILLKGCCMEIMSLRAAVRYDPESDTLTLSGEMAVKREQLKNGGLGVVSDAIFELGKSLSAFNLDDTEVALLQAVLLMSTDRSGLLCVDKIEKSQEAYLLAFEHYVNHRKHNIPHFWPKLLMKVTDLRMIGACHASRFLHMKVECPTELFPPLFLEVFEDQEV
Experimental: (§1) Compounds were tested for thyroid-hormone receptor activity using TR reporter-gene assays. Reporter cells used in the assays express a TR-receptor hybrid (either TRα or TRβ) in which the native N-terminal DNA binding domain (DBD) has been replaced with that of the yeast Gal4 DBD. The reporter gene, firefly luciferase, is functionally linked to the Gal4 upstream activation sequence (UAS). Both cell lines were derived from human embryonic kidney (HEK293).
(§2) Step 1: A suspension of reporter cells was prepared in cell recovery medium containing 10% charcoal-stripped FBS, and dispensed into assay plates. The plates were pre-incubated for 6 hours in a cell culture incubator (37° C./5% CO2/85% humidity).
(§3) These intermediate stocks were subsequently diluted directly into compound screening medium containing 10% charcoal-stripped FBS to generate “2×-concentration” treatment media (containing 0.2, 0.4 or 0.8% DMSO).
(§4) Step 3: At the end of the pre-incubation period, culture media were discarded from the assay plates, and all wells received 100 μl of compound screening medium. 100 μl of each of the previously prepared “2×-concentration” treatment media were dispensed into duplicate assay wells, thereby achieving the desired final treatment concentrations. The final concentration of DMSO in all assay wells was 0.1, 0.2 or 0.4%. Assay plates were incubated for 24 hr in a cell culture incubator (37° C./5% CO2/85% humidity).
(§5) Step 4: At the 24 h assay endpoint, treatment media were discarded and 100 μl/well of luciferase detection reagent was added. Relative luminometer units (RLUs) were quantified from each assay well.

TRβ = target: T2, TRβ (Homo sapiens, UniProt P10828); assay: Thyroid-hormone reporter-gene assay (TRβ-Gal4 hybrid, luciferase, HEK293); type: cell-based; settings: Table 2; for T3-SI (selectivity index): calculated as EC50 (TRα)/EC50 (TRβ); for EC50: reporter cells, 24 hr incubation, read-out: TRβ (EC50)
T2 construct: expressed in transfected cells; host or cells: HEK293
T2 sequence (P10828 217-461 limits assumed): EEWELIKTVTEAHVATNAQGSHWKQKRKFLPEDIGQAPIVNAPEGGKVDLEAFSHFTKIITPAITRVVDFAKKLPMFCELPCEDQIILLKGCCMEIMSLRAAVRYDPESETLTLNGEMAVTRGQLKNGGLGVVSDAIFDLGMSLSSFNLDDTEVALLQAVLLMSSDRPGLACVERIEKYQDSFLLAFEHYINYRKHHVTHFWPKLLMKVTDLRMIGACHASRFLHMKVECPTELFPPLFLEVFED
Experimental: as §1, §2, §3, §4, §5

EC50 (TRα) | T3-SI (selectivity index) (TRβ) | EC50 (TRβ) | Structure (SMILES)
100 to 1000 nM | ++ (3×<T3-SI≤30×) | 10 to 100 nM | CCC(c1ccc(F)cc1)c1c(O)ccc(Cc2c(Cl)cc(OCC(=O)O)cc2Cl)c1F (stereo not drawn) [Compound 32, 2-(3,5-dichloro-4-(2-fluoro-3-(1-(4-fluorophenyl)propyl)-4-hydroxybenzyl)phenoxy)acetic acid]
> 1000 nM | ++ (3×<T3-SI≤30×) | 100 to 1000 nM | CCCC(c1ccc(F)cc1)c1c(O)ccc(Cc2c(Cl)cc(OCC(=O)O)cc2Cl)c1F (stereo not drawn) [Compound 34, 2-(3,5-dichloro-4-(2-fluoro-3-(1-(4-fluorophenyl)butyl)-4-hydroxybenzyl)phenoxy)acetic acid]
10 to 100 nM | ++ (3×<T3-SI≤30×) | 10 to 100 nM | Cc1cc(OCC(=O)O)cc(Cl)c1Cc1ccc(O)c(C(C)C)c1F [Compound 36, 2-(3-chloro-4-(2-fluoro-4-hydroxy-3-isopropylbenzyl)-5-methylphenoxy)acetic acid]
< 10 nM | ++ (3×<T3-SI≤30×) | < 10 nM | CC(C)c1c(O)ccc(Cc2c(Cl)cc(OCC(=O)O)cc2Br)c1F [Compound 40, 2-(3-bromo-5-chloro-4-(2-fluoro-4-hydroxy-3-isopropylbenzyl)phenoxy)acetic acid]
10 to 100 nM | ++ (3×<T3-SI≤30×) | 10 to 100 nM | CCc1cc(OCC(=O)O)cc(Cl)c1Cc1ccc(O)c(C(C)C)c1F [Compound 43, 2-(3-chloro-5-ethyl-4-(2-fluoro-4-hydroxy-3-isopropylbenzyl)phenoxy)acetic acid]
10 to 100 nM | ++ (3×<T3-SI≤30×) | < 10 nM | C=C(C)c1cc(OCC(=O)O)cc(Cl)c1Cc1ccc(O)c(C(C)C)c1F [Compound 46, 2-(3-chloro-4-(2-fluoro-4-hydroxy-3-isopropylbenzyl)-5-(prop-1-en-2-yl)phenoxy)acetic acid]
< 10 nM | ++ (3×<T3-SI≤30×) | < 10 nM | CC(C)c1cc(OCC(=O)O)cc(Cl)c1Cc1ccc(O)c(C(C)C)c1F [Compound 47, 2-(3-chloro-4-(2-fluoro-4-hydroxy-3-isopropylbenzyl)-5-isopropylphenoxy)acetic acid]
100 to 1000 nM | ++ (3×<T3-SI≤30×) | 10 to 100 nM | CC(C)c1c(O)ccc(Cc2c(Cl)cc(OCC(=O)O)cc2Cl)c1Cl [Compound 49, 2-(3,5-dichloro-4-(2-chloro-4-hydroxy-3-isopropylbenzyl)phenoxy)acetic acid]
> 1000 nM | ++ (3×<T3-SI≤30×) | 100 to 1000 nM | COc1c(Cc2c(Cl)cc(OCC(=O)O)cc2Cl)ccc(O)c1C(C)C [Compound 54, 2-(3,5-dichloro-4-(4-hydroxy-3-isopropyl-2-methoxybenzyl)phenoxy)acetic acid]
100 to 1000 nM | +++ (T3-SI>30×) | 10 to 100 nM | Cc1cc(OCC(=O)O)c(F)c(C)c1Cc1ccc(O)c(C(C)C)c1 [Compound 58, 2-(2-fluoro-4-(4-hydroxy-3-isopropylbenzyl)-3,5-dimethylphenoxy)acetic acid]
100 to 1000 nM | ++ (3×<T3-SI≤30×) | 10 to 100 nM | C=Cc1c(F)c(OCC(=O)O)cc(Cl)c1Cc1ccc(O)c(C(C)C)c1 [Compound 67, 2-(5-chloro-2-fluoro-4-(4-hydroxy-3-isopropylbenzyl)-3-vinylphenoxy)acetic acid]
> 1000 nM | ++ (3×<T3-SI≤30×) | 100 to 1000 nM | CCc1c(F)c(OCC(=O)O)cc(Cl)c1Cc1ccc(O)c(C(C)C)c1 [Compound 69, 2-(5-chloro-3-ethyl-2-fluoro-4-(4-hydroxy-3-isopropylbenzyl)phenoxy)acetic acid]
> 1000 nM | +++ (T3-SI>30×) | 100 to 1000 nM | CC(C)c1cc(Cc2c(Cl)cc(OCC(=O)O)c(F)c2C(C)C)ccc1O [Compound 73, 2-(5-chloro-2-fluoro-4-(4-hydroxy-3-isopropylbenzyl)-3-isopropylphenoxy)acetic acid]
